Experimental data reported in patent publication US20240382475A1, “Quinazoline Derivative, Or Preparation Method Therefor And Use Thereof” (Zhejiang Hisun Pharmaceutical Co., Ltd., priority 2021, published 2024).

How the values were obtained:
KRAS-G12C/SOS1 = molecular target: T1, KRAS-G12C/SOS1 (Homo sapiens, UniProt Q07889); test: Blocking the binding of KRAS G12C protein to SOS1 (Cisbio KRAS-G12C/SOS1 binding assay kit, TR-FRET); conditions: Tag1-SOS1 and Tag2-KRAS-G12C, TR-FRET 665/620; read-out: IC50 (nM) Inhibition of KRAS-G12C/SOS1 binding
T1 construct: purchased Cisbio 63ADK000CB16PEG
T1 sequence (Q07889 1-1333): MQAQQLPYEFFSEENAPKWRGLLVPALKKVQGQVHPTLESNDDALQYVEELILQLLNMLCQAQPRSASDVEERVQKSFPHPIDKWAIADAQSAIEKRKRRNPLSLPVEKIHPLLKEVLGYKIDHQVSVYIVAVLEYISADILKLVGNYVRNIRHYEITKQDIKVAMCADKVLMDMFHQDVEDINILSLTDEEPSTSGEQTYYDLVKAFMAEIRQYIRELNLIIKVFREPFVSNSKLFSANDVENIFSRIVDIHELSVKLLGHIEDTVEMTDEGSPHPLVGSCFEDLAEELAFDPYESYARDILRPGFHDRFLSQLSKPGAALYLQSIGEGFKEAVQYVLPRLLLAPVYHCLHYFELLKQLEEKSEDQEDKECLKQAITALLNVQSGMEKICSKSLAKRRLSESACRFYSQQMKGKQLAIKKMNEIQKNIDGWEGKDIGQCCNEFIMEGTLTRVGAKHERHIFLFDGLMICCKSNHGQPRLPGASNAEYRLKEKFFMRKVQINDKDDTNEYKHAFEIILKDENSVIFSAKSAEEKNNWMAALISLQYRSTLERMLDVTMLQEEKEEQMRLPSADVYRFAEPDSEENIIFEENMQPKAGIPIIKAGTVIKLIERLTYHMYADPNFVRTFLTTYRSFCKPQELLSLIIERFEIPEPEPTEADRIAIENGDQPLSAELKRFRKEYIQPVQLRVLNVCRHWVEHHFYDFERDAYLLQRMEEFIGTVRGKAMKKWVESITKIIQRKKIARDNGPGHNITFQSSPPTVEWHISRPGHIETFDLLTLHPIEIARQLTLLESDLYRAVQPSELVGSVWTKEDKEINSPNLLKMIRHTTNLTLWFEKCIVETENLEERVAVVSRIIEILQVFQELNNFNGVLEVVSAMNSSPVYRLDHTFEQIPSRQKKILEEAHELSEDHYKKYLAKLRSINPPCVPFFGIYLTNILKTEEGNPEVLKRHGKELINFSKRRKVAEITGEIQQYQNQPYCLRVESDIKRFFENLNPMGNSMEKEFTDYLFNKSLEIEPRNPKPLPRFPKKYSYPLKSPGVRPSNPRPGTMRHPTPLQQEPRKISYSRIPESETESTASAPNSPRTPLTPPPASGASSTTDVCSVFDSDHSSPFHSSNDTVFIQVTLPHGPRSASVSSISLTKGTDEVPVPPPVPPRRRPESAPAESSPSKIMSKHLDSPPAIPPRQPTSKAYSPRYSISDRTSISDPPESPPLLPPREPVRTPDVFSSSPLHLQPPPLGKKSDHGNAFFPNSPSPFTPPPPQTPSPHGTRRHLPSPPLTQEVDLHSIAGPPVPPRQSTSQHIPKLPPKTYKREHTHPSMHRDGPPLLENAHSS
From the text: The following method was used to determine the abilities of compounds of the invention to block the interaction of SOS1 with the KRAS G12C protein in vitro. KRAS-G12C/SOS1 BINDING ASSAY KITS (Art. No. 63ADK000CB16PEG) from Cisbio was used in this method. Please refer to the kit instruction for detailed experimental operations.
The experimental process can be briefly described as follows: diluent buffer (Art. No. 62DLBDDF) was used to prepare a working solution with a concentration of 5× for Tag1-SOS1 and Tag2-KRAS-G12C protein. The test compounds were dissolved in DMSO to prepare storage solutions of 10 mM, and then the solutions were diluted with dilution buffer for later use. First, 2 μL of the test compound (the final concentrations of the reaction system were 10000 nM-0.1 nM) was added to the well, then 4 μL of Tag1-SOS1 5× working solution and 4 μL of Tag2-KRAS-G12C 5× working solution were added, and the above mixture was centrifuged, mixed, and stood for 15 minutes; then 10 μL of premixed anti-Tag1-Tb^3+ and anti-Tag2-XL665 were added, and the mixture was incubated at room temperature for 2 hours; finally, a microplate reader was used in […] mode to measure the fluorescence intensity of each well emitting wavelengths of 620 nm and […] under the excitation wavelength of 304 nm, and the fluorescence intensity ratio 665/620 in each well was calculated. Compared with the fluorescence intensity ratio of a control group (0.1% DMSO), the percentage inhibition rates of the test compounds at each concentration were calculated, and the IC50 values of the compounds were obtained by performing nonlinear regression analysis with logarithmic values of the compound concentration-inhibition rate by GraphPad Prism 5 software, which was shown in Table 1.

OCI-AML5 cells = test: Inhibition of OCI-AML5 cell proliferation (CellTiter-Glo); assay type: cell-based; conditions: Homo sapiens, OCI-AML-5; OCI-AML5 cells (SOS1 N233Y mutation), 120 hours
Experimental: The following method was used to determine the influence of the compounds of the present invention on OCI-AML5 cells proliferation. OCI-AML5 cells (containing SOS1 N233Y mutation) were purchased from Nanjing Kebai Biotechnology Co., Ltd. and cultured in MEMα medium containing 10% fetal bovine serum, 100 U penicillin, and 100 μg/mL streptomycin. The activities of the cells were determined by CellTiter-Glo® Luminescent Cell Viability Assay Kit (Promega, Art. No. G7573).
The experimental method was operated according to the steps in the kit instruction, which were briefly described as follows: the test compounds were first dissolved in DMSO to prepare storage solutions of 10 mM, and then diluted with culture mediums to prepare test samples. The final concentrations of the compounds were 10000 nM to 0.15 nM. Cells in logarithmic phase were inoculated in a 96-well cell culture plate with 1,000 cells per well, after cultured overnight in 5% CO2 incubator at 37° C., the test compounds were added to the incubator to continue the culture for 120 hours. After the culture was completed, 50 μL of CellTiter-Glo detection solution was added to each well, shaken for 5 minutes and then stood for 10 minutes. Then, a Luminescence mode was used to read the luminescence values of each well of the samples on a microplate reader.

p-ERK1/2 in DLD-1 cells = test: Inhibition of p-ERK1/2 in DLD-1 cells (Cisbio Advanced phospho-ERK1/2 kit); assay type: cell-based; conditions: Homo sapiens; DLD-1 cells (KRAS G13D mutation), hEGF 5 nM stimulation; read-out: IC50 (nM) Inhibition on p-ERK½ in DLD-1 cells
From the text: The following method was used to determine the inhibition activities of the compounds of the present invention on p-ERK1/2 in DLD-1 cells. The Advanced phospho-ERK1/2 (Thr202/tyr2O4) kit (Art. No. 64AERPEH) from Cisbio was used in this method. Please refer to the kit instruction for detailed experimental operations. DLD-1 cells (containing KRAS G13D mutation) were purchased from the Cell Resource Center of Shanghai Institutes for Biological Sciences, Chinese Academy of Sciences.
The experimental process can be briefly described as follows: DLD-1 cells were cultured in RPMI 1640 complete medium containing 10% fetal bovine serum, 100 U penicillin, 100 μg/mL streptomycin and 1 mM Sodium Pyruvate. DLD-1 cells were plated in a 96-well plate at 30,000 cells per well, after cultured overnight in 5% CO2 incubator at 37° C. with complete culture medium. The test compounds were dissolved in DMSO to prepare storage solutions of 10 mM, and then diluted with RPMI 1640 basic mediums. 90 μL of RPMI 1640 basic mediums containing the test compounds at the corresponding concentration were added to each well. The final concentrations of the test compounds in the reaction system were 10,000 nM to 0.15 nM, and were placed in a cell culture incubator for 3 hours and 40 minutes. Subsequently, 10 μL of hEGF (purchased from Roche, Art. No. 11376454001) prepared with RPMI 1640 basic medium was added to a final concentration of 5 nM, and placed in the incubator for culturing for 20 minutes. The cell supernatant was discarded, and the cells were washed with PBS on ice-bath. Then, 45 μl of 1× cell phospho/total protein lysis buffer (component of Advanced phospho-ERK1/2 kit) was added to each well for lysis. The 96-well plate was placed on ice for 0.5 hours to lyse, and then the lysate was detected according to the instruction of the Advanced phospho-ERK1/2 (Thr202/tyr2O4) kit. Finally, the microplate reader was used in […] mode to measure the fluorescence intensity of each well emitting wavelengths of 620 nm and […] under the excitation wavelength of 304 nm, and the fluorescence intensity ratio 665/620 in each well was calculated. By comparing with the fluorescence intensity ratio of a control group (0.1% DMSO), the percentage inhibition rates of the test compounds at each concentration were calculated, and the IC50 values of the compounds were obtained by performing nonlinear regression analysis with logarithmic values of the compound concentration-inhibition rate by GraphPad Prism 5 software, which can be seen in Table 3.

NCI-H358 cells = test: Inhibition of NCI-H358 cell proliferation under 3D non-anchored conditions (CellTiter-Glo 3D); assay type: cell-based; conditions: Homo sapiens, NCI-H358 cells (KRAS G12C mutation), 120 hours
Experimental: The following method was used to determine the effects of the compounds of the present invention on NCI-H358 cell proliferation under three-dimensional (3D) non-anchored conditions. NCI-H358 cells (containing KRAS G12C mutation) were purchased from the Cell Resource Center of Shanghai Institutes for Biological Sciences, Chinese Academy of Sciences, and cultured in RPMI 1640 medium containing 10% fetal bovine serum, 100 U penicillin, 100 μg/mL streptomycin and 1 mM Sodium Pyruvate. The activities of the cells were determined by CellTiter-Glo® 3D Cell Viability Assay Kit (Promega, Art. No. G9683).
The experimental method was operated according to the steps in the kit instruction, which can be briefly described as follows: the test compounds were first dissolved in DMSO to prepare storage solutions of 10 mM, and then diluted with culture mediums to prepare test samples. The final concentrations of the compounds were 10000 nM to 0.15 nM. Cells in logarithmic phase were inoculated in an ultra-low adsorption 384-well cell culture plate (PerkinElmer, #3830) with 2000 cells per well, and the test compounds were added and cultured for 120 hours. After the culture was completed, 30 μL of CellTiter-Glo 3D detection solution was added to each well, shaken for 30 minutes and then stood for 120 minutes. Then, a Luminescence mode was used to read the luminescence values of each well of the samples on a microplate reader. By comparing with the numerical value of a control group (0.1% DMSO), the percentage inhibition rates of the compounds at each concentration were calculated, and the IC50 values of the compounds inhibiting cell proliferation were obtained by performing nonlinear regression analysis with logarithmic values of the compound concentration-inhibition rate by GraphPad Prism 5 software, which can be seen in Table 4.

Compound | IC50 (KRAS-G12C/SOS1) [nM] | IC50 (OCI-AML5 cells) [nM] | IC50 (p-ERK1/2 in DLD-1 cells) [nM] | IC50 (NCI-H358 cells) [nM]
COc1cc2nc(C)nc(N[C@H](C)c3cccc(C#N)c3C)c2cc1N1CC(C#N)C1 [Compound 12, (R)-1-(4-((1-(3-cyano-2-methylphenyl)ethyl)amino)-7-methoxy-2-methylquinazolin-6-yl)azetidine-3-carbonitrile] | 88.4 | 23 |  | 
COc1cc2nc(C)nc(N[C@H](C)c3cccc(C#N)c3C)c2cc1N1CCN(S(C)(=O)=O)CC1 [Compound 13, (R)-3-(1-((7-methoxy-2-methyl-6-(4-(methylsulfonyl)piperazin-1-yl)quinazolin-4-yl)amino)ethyl)-2-methylbenzonitrile] |  | 25.4 | 73.5 | 
COc1cc2nc(C)nc(N[C@H](C)c3cccc(C#N)c3C)c2cc1N1CCC(N2CCN(C)CC2)CC1 [Compound 15, (R)-3-(1-((7-methoxy-2-methyl-6-(4-(4-methylpiperazin-1-yl)piperidin-1-yl)quinazolin-4-yl)amino)ethyl)-2-methylbenzonitrile] | 31.7 | 3.7 |  | 
COc1cc2nc(C)nc(N[C@H](C)c3cccc(C#N)c3C)c2cc1N1CCC2(CC1)CNC2 [Compound 16c, (R)-3-(1-((7-methoxy-2-methyl-6-(2,7-diazaspiro[3.5]nonan-7-yl)quinazolin-4-yl)amino)ethyl)-2-methylbenzonitrile] | 20.3 | 13.1 |  | 
COc1cc2nc(C)nc(N[C@H](C)c3cccc(C#N)c3C)c2cc1N1CCC(OC)CC1 [Compound 17, (R)-3-(1-((7-methoxy-6-(4-methoxypiperidin-1-yl)-2-methylquinazolin-4-yl)amino)ethyl)-2-methylbenzonitrile] |  | 10.6 | 29.2 | 
COc1cc2nc(C)nc(N[C@H](C)c3cccc(C#N)c3C)c2cc1N1CCC2(CCN(C(C)=O)CC2)CC1 [Compound 18, (R)-3-(1-((6-(9-acetyl-3,9-diazaspiro[5.5]undecan-3-yl)-7-methoxy-2-methylquinazolin-4-yl)amino)ethyl)-2-methylbenzonitrile] |  | 2.6 |  | 6.9
COc1cc2nc(C)nc(N[C@H](C)c3cccc(C#N)c3C)c2cc1N1CCN(CCO)CC1 [Compound 20, (R)-3-(1-((6-(4-(2-hydroxyethyl)piperazin-1-yl)-7-methoxy-2-methylquinazolin-4-yl)amino)ethyl)-2-methylbenzonitrile] |  |  |  | 52.4
COc1cc2nc(C)nc(N[C@H](C)c3cccc(C#N)c3C)c2cc1N1CCC(C(=O)N(C)C)CC1 [Compound 22, (R)-1-(4-((1-(3-cyano-2-methylphenyl)ethyl)amino)-7-methoxy-2-methylquinazolin-6-yl)-N, N-dimethylpiperidine-4-carboxamide] |  | 7.2 | 20.9 | 15.1
